The source made the active and inactive calls.
Tests used:
[1] = target: E3 ubiquitin-protein ligase Mdm2 (Homo sapiens, UniProt Q00987); assay: enhancers of MDM2-luciferase reporter signal, concentration-effect titration, project on inhibitors of MDM2 ubiquitin ligase, cellular assay, luminescent readout, 384-well plate format (AID 1394); type: functional;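 also: MDM2 E3 inhibitors raise luminescence so EC50 is for signal enhancement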
cells [2] = assay: cells
[3] = HEp-2 cell cytotoxicity, dose response, cytotoxicity control for RSV inhibitor project, HTS (AID 2410); type: functional; conditions: human respiratory syncytial virus
[4] = target: T1, Tyrosine-protein phosphatase non-receptor type 7 (Homo sapiens, UniProt P35236); assay: inhibitors of human HePTP phosphatase, […], biochemical, absorbance, leukemia target (AID 521); type: functional
T1 sequence (P35236 whole entry): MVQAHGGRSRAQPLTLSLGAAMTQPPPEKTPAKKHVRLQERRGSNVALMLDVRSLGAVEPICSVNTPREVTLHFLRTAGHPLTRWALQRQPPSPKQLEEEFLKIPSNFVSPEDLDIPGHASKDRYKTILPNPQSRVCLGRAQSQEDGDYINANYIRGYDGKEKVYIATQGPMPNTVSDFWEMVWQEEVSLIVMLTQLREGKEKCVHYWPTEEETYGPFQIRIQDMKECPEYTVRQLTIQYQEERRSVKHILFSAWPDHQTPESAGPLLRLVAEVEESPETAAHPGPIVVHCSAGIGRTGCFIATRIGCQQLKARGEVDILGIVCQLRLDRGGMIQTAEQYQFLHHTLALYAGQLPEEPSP

BJ [5] = assay: cells; type: functional, cell-based; conditions: Homo sapiens
BJ [6] = assay: cytotoxicity toward BJ-TERT fibroblasts, dose response, cell-based, RAS-independent, luminescence (AID 1933); type: functional; conditions: Homo sapiens
[7] = Shn3 3'UTR reporter inhibitors, dose response, cell-based, Clone20 osteoblasts, firefly luciferase, cherry-picked (AID 624132); type: functional;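 also: firefly luciferase luminescence from reporter carrying the Shn3 3'UTR in osteoblasts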
BJ [8] = assay: cytotoxicity toward BJ-TERT-LT-ST fibroblasts, dose response, cell-based, RAS-independent, luminescence (AID 1935); type: functional; conditions: Homo sapiens;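 also: BJ fibroblasts immortalized with TERT plus LT and ST oncogenes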
[9] = target: T2, Heat shock factor protein 1 (Mus musculus, UniProt P38532); assay: inhibition of MG132-induced HSE-luciferase signal, confirmation, cell-based, NIH3T3, luminescence, dose retest (AID 2382); type: functional;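 also: NIH3T3 fibroblasts with HSF1-driven luciferase reporter stressed by proteasome inhibitor MG132; luminescence from HSF1-driven luciferase expression after 8 hours of MG132 stress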
T2 sequence (P38532 whole entry): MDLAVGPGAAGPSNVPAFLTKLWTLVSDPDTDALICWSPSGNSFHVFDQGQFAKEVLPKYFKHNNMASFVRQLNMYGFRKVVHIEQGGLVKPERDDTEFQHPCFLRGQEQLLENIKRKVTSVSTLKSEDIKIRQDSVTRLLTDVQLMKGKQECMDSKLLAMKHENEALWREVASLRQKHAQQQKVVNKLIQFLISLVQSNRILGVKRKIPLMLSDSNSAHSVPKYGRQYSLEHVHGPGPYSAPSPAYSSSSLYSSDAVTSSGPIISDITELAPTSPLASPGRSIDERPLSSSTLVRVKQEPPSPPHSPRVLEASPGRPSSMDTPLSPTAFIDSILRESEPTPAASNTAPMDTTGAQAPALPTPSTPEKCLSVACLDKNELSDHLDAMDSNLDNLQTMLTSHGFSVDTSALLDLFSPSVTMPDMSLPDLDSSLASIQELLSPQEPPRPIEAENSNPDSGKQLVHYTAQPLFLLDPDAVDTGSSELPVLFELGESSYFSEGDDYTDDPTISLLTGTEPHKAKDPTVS

[10] = control 3'UTR Renilla luciferase suppression, dose response, counter-screen for Shn3 inhibitor project, cell-based, Clone20-Shn3RL, cherry-picked (AID 624133); type: functional
[11] = cytotoxicity toward DRD oncogenic fibroblasts, dose response, cell-based, non-viral oncogenic, luminescence (AID 1934); type: functional; conditions: Homo sapiens
[12] = HepG2 cell cytotoxicity, dose response, cytotoxicity control for Shn3 inhibitor project, CellTiter-Glo, cherry-picked (AID 624134); type: functional, cell-based
[13] = cytotoxicity in HEK-293T cells, dose response, cytotoxicity control for TCR NF-kB inhibitor project, luminescence, T-cell screen hits (AID 489026); type: functional, cell-based;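 also: cells exposed to compound about 14 hours before the viability readout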
[14] = target: T3, Corticotropin-releasing factor receptor 2/Corticotropin-releasing factor-binding protein (Homo sapiens, UniProt P24387+Q13324); assay: activators of CRF receptor 2 with binding protein – uHTS hits, confirmation (AID 602473); type: functional; conditions: read-out: EC50_Mean
T3 sequence (Q13324 whole entry): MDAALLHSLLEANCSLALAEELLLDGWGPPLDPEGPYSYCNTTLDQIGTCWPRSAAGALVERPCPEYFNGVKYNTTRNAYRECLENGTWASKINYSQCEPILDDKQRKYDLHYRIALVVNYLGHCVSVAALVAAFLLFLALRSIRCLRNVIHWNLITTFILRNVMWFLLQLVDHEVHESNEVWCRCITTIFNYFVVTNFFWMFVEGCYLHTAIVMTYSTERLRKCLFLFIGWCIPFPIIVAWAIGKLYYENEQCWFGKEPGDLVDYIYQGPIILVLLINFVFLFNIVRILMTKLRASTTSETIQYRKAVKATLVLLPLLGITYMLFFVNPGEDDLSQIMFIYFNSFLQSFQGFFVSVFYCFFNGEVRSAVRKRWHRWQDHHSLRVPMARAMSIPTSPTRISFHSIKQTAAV
T3 sequence (P24387 whole entry): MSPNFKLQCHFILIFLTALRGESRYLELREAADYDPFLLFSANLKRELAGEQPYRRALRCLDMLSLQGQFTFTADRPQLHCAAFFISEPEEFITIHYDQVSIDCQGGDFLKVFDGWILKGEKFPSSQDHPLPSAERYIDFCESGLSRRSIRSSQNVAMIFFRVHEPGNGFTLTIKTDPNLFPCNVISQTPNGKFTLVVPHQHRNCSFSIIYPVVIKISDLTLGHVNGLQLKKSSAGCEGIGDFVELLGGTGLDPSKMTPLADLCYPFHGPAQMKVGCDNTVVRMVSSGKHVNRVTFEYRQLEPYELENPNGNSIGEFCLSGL

Ephrin type-A receptor 4 = Ephrin type-A receptor 4 (Mus musculus, UniProt Q03137); assay: inhibitors of EphA4 binding to KYL peptide, primary screen, biochemical, colorimetric, mouse EphA4 (AID 689); type: functional
Ephrin type-A receptor 4, sequence (Q03137 whole entry): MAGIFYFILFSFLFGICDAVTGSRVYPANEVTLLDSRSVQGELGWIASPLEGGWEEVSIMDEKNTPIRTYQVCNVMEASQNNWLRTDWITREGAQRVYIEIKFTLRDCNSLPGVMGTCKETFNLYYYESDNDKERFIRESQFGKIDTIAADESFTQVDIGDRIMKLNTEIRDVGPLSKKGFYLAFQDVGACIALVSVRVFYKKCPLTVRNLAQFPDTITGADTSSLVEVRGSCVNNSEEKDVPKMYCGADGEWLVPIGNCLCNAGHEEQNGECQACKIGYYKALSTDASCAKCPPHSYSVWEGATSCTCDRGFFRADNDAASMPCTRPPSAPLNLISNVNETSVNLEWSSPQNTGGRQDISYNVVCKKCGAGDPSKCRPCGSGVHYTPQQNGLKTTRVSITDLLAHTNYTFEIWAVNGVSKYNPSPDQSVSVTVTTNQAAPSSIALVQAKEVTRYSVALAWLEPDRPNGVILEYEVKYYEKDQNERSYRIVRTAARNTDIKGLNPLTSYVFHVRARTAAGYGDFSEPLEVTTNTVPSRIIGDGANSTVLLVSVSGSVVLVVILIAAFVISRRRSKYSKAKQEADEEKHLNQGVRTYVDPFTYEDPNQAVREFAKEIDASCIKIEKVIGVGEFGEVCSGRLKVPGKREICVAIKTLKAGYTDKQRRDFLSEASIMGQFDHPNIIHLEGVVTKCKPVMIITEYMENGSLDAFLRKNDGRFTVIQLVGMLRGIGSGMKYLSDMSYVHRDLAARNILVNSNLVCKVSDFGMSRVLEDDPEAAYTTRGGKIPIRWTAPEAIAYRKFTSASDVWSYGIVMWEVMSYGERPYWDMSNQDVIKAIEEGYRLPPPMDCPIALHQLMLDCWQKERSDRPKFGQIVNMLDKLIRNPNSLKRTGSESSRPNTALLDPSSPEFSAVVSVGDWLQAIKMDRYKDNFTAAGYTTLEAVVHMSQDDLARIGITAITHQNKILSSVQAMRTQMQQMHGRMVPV

Vasopressin V1a receptor = Vasopressin V1a receptor (Homo sapiens, UniProt P37288); assay: Counterscreen for Oxytocin Receptor (OXTR) agonists: Fluorescence-based cell-based high throughput dose response assay to identify agonists of the vasopressin 1 receptor (V1R). [Related pubchem assays: 2435 (Primary screen (OXTR agonists in singlicate)), 434991 (Counterscreen (V1R agonists in triplicate)), 2482 (Summary (OXTR agonists)) …; type: functional
Vasopressin V1a receptor, sequence (P37288 whole entry): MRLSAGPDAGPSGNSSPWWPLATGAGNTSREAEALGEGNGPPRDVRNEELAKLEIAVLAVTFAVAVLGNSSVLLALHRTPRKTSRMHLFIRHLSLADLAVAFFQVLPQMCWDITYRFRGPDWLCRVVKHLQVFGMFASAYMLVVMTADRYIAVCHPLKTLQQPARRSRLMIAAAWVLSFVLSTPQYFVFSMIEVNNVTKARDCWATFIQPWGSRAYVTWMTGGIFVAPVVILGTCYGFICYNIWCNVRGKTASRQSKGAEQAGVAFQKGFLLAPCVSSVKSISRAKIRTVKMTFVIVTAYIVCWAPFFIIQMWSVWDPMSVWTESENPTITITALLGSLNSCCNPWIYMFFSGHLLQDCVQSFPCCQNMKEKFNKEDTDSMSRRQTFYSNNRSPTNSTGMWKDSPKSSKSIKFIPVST

Oxytocin receptor = Oxytocin receptor (Homo sapiens, UniProt P30559); assay: Fluorescence-based cell-based high throughput dose response assay for agonists of the Oxytocin Receptor (OXTR). [Related pubchem assays: 2435 (Primary screen (OXTR agonists in singlicate)), 434991 (Counterscreen (V1R agonists in triplicate)), 2482 (Summary (OXTR agonists)), 434963 (Confirmation screen (OXTR agonists in triplicate))]; type: functional
Oxytocin receptor, sequence (P30559 whole entry): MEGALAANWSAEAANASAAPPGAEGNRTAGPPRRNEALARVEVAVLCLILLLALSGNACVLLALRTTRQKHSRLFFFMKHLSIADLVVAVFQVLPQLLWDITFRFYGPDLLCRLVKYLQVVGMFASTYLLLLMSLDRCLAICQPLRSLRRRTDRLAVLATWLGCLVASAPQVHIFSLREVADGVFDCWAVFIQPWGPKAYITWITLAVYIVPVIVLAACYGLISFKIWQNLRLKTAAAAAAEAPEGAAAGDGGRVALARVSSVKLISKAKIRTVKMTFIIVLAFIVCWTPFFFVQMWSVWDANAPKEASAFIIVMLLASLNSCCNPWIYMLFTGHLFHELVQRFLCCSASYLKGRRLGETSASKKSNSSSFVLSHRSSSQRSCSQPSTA

INS1 = assay: beta cell apoptosis inhibitors, cytokine rescue, dose response, luminescence, retest (AID 449756); type: functional, cell-based; conditions: Rattus norvegicus;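 also: cell death triggered by IL-1 beta plus TNF-alpha plus IFN-gamma mixture; protective hits raise ATP signal compared with cytokine alone wells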
[15] = Luminescence Cell-Based Dose Response HTS to Identify Activators of Luciferase Translation or Activity in H4 […] Cells. [Related pubchem assays: 1829 (Project Summary), 1814 (Primary HTS)]; type: functional
[16] = Luminescence Cell-Based Dose Confirmation to Identify Activators of 5'UTR Stem-Loop Driven Alpha-Synuclein mRNA Translation in H4 Neuroglioblastoma Cells. [Related pubchem assays: 1829 (Project Summary), 1814 (Primary HTS)]; type: functional
cells [17] = assay: cells; remark: listed apart in the source
[18] = target: T4, Oxysterols receptor LXR-beta (Homo sapiens, UniProt P55055); type: functional, cell-based;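 also: Cell-based luminescence dose-response assay of agonist activity at LXR, run as a confirmatory counterscreen to a daf-12 agonist screen; HEK293 cells with Gal4-LXR fusion and GAL4-driven luciferase reporter; agonist potency from rising luciferase signal of a Gal4-LXR reporter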
T4 sequence (P55055 whole entry): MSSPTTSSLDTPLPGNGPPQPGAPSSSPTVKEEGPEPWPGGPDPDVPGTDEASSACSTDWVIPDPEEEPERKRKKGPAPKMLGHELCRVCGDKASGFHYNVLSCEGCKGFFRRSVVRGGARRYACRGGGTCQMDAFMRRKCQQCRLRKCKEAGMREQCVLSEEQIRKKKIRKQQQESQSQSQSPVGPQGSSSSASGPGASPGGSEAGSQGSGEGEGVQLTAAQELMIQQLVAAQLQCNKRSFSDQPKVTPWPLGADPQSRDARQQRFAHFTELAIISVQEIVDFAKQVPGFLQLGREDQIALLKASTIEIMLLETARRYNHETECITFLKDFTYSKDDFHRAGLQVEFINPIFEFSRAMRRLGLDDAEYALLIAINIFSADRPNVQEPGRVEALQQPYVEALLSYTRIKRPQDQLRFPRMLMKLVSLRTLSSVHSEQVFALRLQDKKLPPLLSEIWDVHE

[19] = Luminescence Cell-Based Dose Response to Identify Activators of Luciferase Translation or Activity in H4-C Neuroglioblastoma Cells. [Related pubchem assays: 1829 (Project Summary), 1814 (Primary HTS)]; type: functional
H4 = assay: Luminescence Cell-Based Dose Response HTS to Identify Activators of 5'UTR Stem-Loop Driven Prion Protein mRNA Translation in H4 Neuroglioblastoma Cells. [Related pubchem assays: 1829 (Project Summary), 1814 (Primary HTS)]; type: functional; conditions: Homo sapiens
[20] = Luminescence Cell-Based Dose Confirmation HTS to Identify Activators of 5'UTR Stem-Loop Driven Alpha-Synuclein mRNA Translation in H4 Neuroglioblastoma Cells. [Related pubchem assays: 1829 (Project Summary), 1814 (Primary HTS)]; type: functional
[21] = microbe, parasite or virus in culture; type: functional; conditions: Mycobacterium tuberculosis
[22] = human group III sPLA2 inhibitors, dose response, biochemical, QFRET, IC50 (AID 743457);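 also: green fluorescence rise as the enzyme cleaves BODIPY PC-A2 in liposomes; potency for inhibition of the enzyme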
[23] = Luminescence Cell-Based Dose Response to Identify Activators of 5'UTR Stem-Loop Driven Prion Protein mRNA Translation in H4-C Neuroglioblastoma Cells. [Related pubchem assays: 1829 (Project Summary), 1814 (Primary HTS)]; type: functional

E3 ubiquitin-protein ligase Mdm2, sequence (Q00987 whole entry): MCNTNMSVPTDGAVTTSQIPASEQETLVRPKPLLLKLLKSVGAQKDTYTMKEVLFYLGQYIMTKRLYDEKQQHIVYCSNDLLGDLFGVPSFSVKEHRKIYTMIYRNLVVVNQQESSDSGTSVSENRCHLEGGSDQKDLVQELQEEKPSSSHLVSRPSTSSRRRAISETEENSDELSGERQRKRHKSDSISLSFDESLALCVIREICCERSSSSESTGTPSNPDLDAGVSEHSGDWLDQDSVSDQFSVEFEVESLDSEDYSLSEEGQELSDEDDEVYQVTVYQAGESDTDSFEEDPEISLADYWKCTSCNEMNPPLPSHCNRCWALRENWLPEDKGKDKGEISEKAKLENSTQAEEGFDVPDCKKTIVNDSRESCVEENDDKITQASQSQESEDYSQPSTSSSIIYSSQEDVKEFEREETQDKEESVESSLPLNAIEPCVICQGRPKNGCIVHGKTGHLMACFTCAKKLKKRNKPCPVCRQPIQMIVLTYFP

For `Cc1cc(NC(=O)C2CC2)ncc1NC(=O)C12CC3CC(CC(C3)C1)C2`, the EC50 [1] was 15.7 µM (not active).

In the case of `O=C(Cc1cccc2ccccc12)Nc1ccccc1C(=O)O`, the IC50 (cells [2]) is reported as 24.4 µM (active) and the CC50 [3] is reported as 28.8 µM (active).

For `Cc1cc(COc2ccccc2OCCN2CCN(C)CC2)no1`, the IC50 [4] was > 100 µM (not active).

In the case of `C=CCSc1nc2ccccc2n1C(=O)/C=C/c1cc(OC)c(OC)c(OC)c1`, the EC50 (BJ [5]) is reported as > 150 µM (inconclusive), the EC50 (BJ [6]) is reported as 2.56 µM (inconclusive) and the AC50 [7] is reported as 1.13 µM (active). For the same compound, the EC50 (BJ [8]) was 3.4 µM (active), the EC50 [9] was 10.3 µM (inconclusive) and the AC50 [10] was 14.2 µM (active). For the same compound, the EC50 [11] was 2.66 µM (active), the AC50 [12] was 63.8 µM (active) and the EC50 [1] was 0.27 µM (active). The IC50 [13] was 71.8 µM (inactive).

With `C=CCn1c(=O)/c(=C/c2cc(OC)c(OC)c(OC)c2)s/c1=C(/C#N)c1nc2ccccc2n1C` the EC50 [14] was 13.3 µM (active) and the IC50 (Ephrin type-A receptor 4) was > 100 µM (not active).

For `COc1cccc(/C=N/Nc2snc(SC)c2C#N)c1O`, the EC50 (BJ [5]) was 40.4 µM (active), the EC50 (BJ [6]) was 27 µM (active) and the EC50 (Vasopressin V1a receptor) was > 29.9 µM (not active). The EC50 (Oxytocin receptor) was > 29.9 µM (not active), the EC50 (BJ [8]) was > 150 µM (not active) and the AC50 (INS1) was 3.96 µM (active). For the same compound, the EC50 [11] was 48.3 µM (active).

For `C=CCS/C(N)=N\N=C\c1c(O)ccc2ccccc12`, the EC50 [15] was 0.902 µM (active), the EC50 [16] was 0.426 µM (active) and the EC50 (cells [17]) was > 67.5 µM (inactive). For the same compound, the EC50 [18] was > 67.5 µM (inactive), the EC50 [19] was 0.324 µM (active) and the EC50 (H4) was < 0.1 µM (active). The EC50 [20] was 9.96 µM (active), the CC50 [21] was > 40 µM (active) and the IC50 [22] was > 122 µM (inactive). The EC50 [23] was 0.313 µM (active).
